Test results reported in patent US4225619A, “Substituted fluoracylresorcinols” (Boehringer Ingelheim GmBH, priority 1976, dated 1980).
Values after ≈ are worked out from the molar mass of the structure shown.

Tests used:
Format in all cases: cell-based
[1] = system: Pityrosporum ovale; assay: Serial dilution test for Pityrosporum ovale; settings: Malassezia furfur, 168 h, 27° C. for 7 days, read-out: MIC, S.D.T., Pityrosporum ovale
Method: Serial dilution test for Corynebacterium acnes and Pityrosporum ovale Nutrient medium
For Corynebacterium acnes: thioglycolate-broth for Pityrosporum ovale: Littmann's broth, 5 ml per tube.
Suspension of microorganisms in 0.9% sodium chloride solution, standardized using a photometer according to Eppendorf by means of a suspension for comparison consisting of barium sulfate, for Corynebacterium acnes in a dilution of 1:100, for Pityrosporum ovale in an undiluted state. 0.1 ml of the suspensions was used per test tube. Dimethyl sulfoxide served as a solvent for the substances.
The suspension with Corynebacteria acnes was incubated at 37° C. for 48 hours, the suspension of Pityrosporum ovale at 27° C. for 7 days. The reading was effected by macroscopic evaluation of the growth of microorganisms and registration of the minimal inhibitory concentration.

[2] = system: Trichophyton mentagrophytes AT CC 9129; assay: Agar diffusion test (hole-test); settings: ATCC9129, 168 h, 27° C. for 7 days, read-out: MIC, A.D.T., Trichophyton mentagrophytes
Method: (§1) The inhibitory effect on bacteria and fungi was examined by the serial dilution test and the agar diffusion test (hole-test). As bacteria were used: Staphylococcus aureus SG 511, Streptococcus Aronson, Streptococcus pyogenes At CC 86 68; as fungi: Candida albicans AT CC 10231, Trichophyton mentagrophytes AT CC 9129 and Aspergillus niger.
(§2) 3. Sabouraud agar: for C. alb., Trich. ment., A. niger
(§3) The age of the primary cultures is 24 hours for bacteria and 14 days for fungi. The standardization of the suspension of microorganisms is effected using a photometer according to Eppendorf (test tube .phi.14 mm, filter 546 nm) and a suspension for comparison consisting of barium sulfate, this suspension being created by addition of 3.0 ml of 1% barium chloride solution to 97 ml of 1% sulfuric acid. After the standardization St. aureus SG 511 was diluted 1:1000 and Sc. pyogenes and Aronson 1:100 by means of sodium chloride solution. The fungi were used in an undiluted state.
(§4) 40 mgm of the substance were put into a 10 ml measuring flask and filled up to the mark with the solvent (corresponds to a dilution of 1:250=4000 μg/ml).
(§5) The dilutions to the concentrations under test were effected with distilled water or the respective solvent.
(§6) 19 ml of the nutrient medium were filled into sterile Petri dishes of a diameter of 8 cm and dried. Subsequently the agar plates were charged with 4 ml of seed agar. 100 ml of seed agar contain 1.25 ml of the suspension of microorganisms, an agar plate thus containing 0.05 ml of the suspension of microorganisms. After solidification of the agar, 5 holes of a diameter of 5 mm were punched into the plates and filled with 0.05 ml of the correspondingly concentrated substance solution.
(§7) Control tests merely using the solvent are to be carried out simultaneously.
(§8) Bacteria were incubated at 37° C. for 18-20 hours and fungi at 27° C. for 7 days.
(§9) The diameter of the area of inhibition in mm was measured after having deducted the diameter of the hole.

[3] = system: Candida albicans AT CC 10231; assay: Agar diffusion test (hole-test); settings: ATCC10231, 168 h, 27° C. for 7 days, read-out: MIC, A.D.T., Candida albicans
Method: as §1, §2, §3, §4, §5, §6, §7, §8, §9

[4] = system: Aspergillus niger; assay: Agar diffusion test (hole-test); settings: 168 h, 27° C. for 7 days, read-out: MIC, A.D.T., Aspergillus niger
Method: as §1, §2, §3, §4, §5, §6, §7, §8, §9

[5] = system: Trichophyton mentagrophytes AT CC 9129; assay: Serial dilution test; settings: ATCC9129, 168 h, 27° C. for 7 days, read-out: MIC, S.D.T., Trichophyton mentagrophytes
Method: as §1
(§10) 3. Sabouraud broth: for C. alb., Trich. mnt., A. niger
(§11) The age of the primary cultures is 24 hours for bacteria and 14 days for fungi. The standardization of the suspension of microorganisms is effected using a photometer according to Eppendorf (test tube .phi.14 mm, filter 546 nm) and a suspension for comparison consisting of barium sulfate, this suspension being created by adition of 3.0 ml of 1% barium chloride solution to 97 ml of 1% sulfuric acid. After the standardization the bacteria were further diluted to a concentration of 1:1000 by means of sodium chloride solution, the fungi were used in an undiluted state.
(§12) 40 mgm of the substance were put into a 10 ml measuring flask and filled up to the mark with the solvent (corresponds to a dilution of 1:250=4000 μg/ml). The further dilution series was standardized with distilled water or the respective solvent and the following substance concentrations were prepared: 1000; 250; 62.5 μg/ml.
(§13) The tubes were filled with 4.9 ml of the corresponding liquid nutrient medium. Then 0.1 ml of the substance dilution prepared above was added to each tube, so that the mentioned final concentrations were present. Finally each tube was inoculated with 0.1 ml of the standardized suspension of microorganisms. Control tests merely using the solvent are to be carried out simultaneously.
as §8
(§14) The measurement is carried out macroscopically defining the minimal inhibitory concentration (the lowest still microbiostatically effective concentration).

[6] = system: Candida albicans AT CC 10231; assay: Serial dilution test; settings: for MIC: Candida albicans, ATCC10231, 168 h, 27° C. for 7 days, read-out: MIC, S.D.T., Candida albicans
Method: as §1, §10, §11, §12, §13, §8, §14

[7] = system: Aspergillus niger; assay: Serial dilution test; settings: Aspergillus niger, 168 h, 27° C. for 7 days, read-out: MIC, S.D.T., Aspergillus niger
Method: as §1, §10, §11, §12, §13, §8, §14

[8] = system: Pityrosporum ovale CBS 1878; assay: Agar diffusion test for Pityrosporum ovale CBS 1878; settings: Malassezia furfur, CBS1878, 168 h, 7 days at 27° C., read-out: MIC, A.D.T., Pityrosporum ovale
Method: Agar diffusion test for Pityrosporum ovale CBS 1878 Nutrient medium
Littmann's agar, 23 ml per Petri dish, diameter of dish 100 mm.
Suspension of microorganisms in 0.9% sodium chloride solution, standardized using a photometer according to Eppendorf by means of a suspension for comparison consisting of barium sulfate. 0.05 ml per plate were used. The test substances were dissolved in dimethyl sulfoxide. The incubation time was 7 days at 27° C.; the area of inhibition in mm was measured, 0.05 ml of the solution of the substance were used for each punch-hole of a diameter of 6 mm. The results of these tests are recorded in the following tables 1 and 2: […]

[9] = system: HeLa-cell culture; assay: Inhibition of HeLa cell cultures; settings: Homo sapiens, 72 h, 37° C. for 3 days, 5% carbon dioxide
Method: Measurement of the inhibition of cell cultures
HeLa-cell culture was treated with trypsin and adjusted to a cell number of 150,000 cells/ml of fresh medium. The substance was always dissolved in the same quantity of dimethyl sulfoxide and then further diluted with growth medium. 0.1 ml of the substance-dilutions were added to each well of microtiter plates and then 0.2 ml of cell suspension were added (4 wells per dilution). Several growth controls containing 0.1 ml of growth medium instead of 0.1 ml of substance dilution were put up. After careful mixing, the cultures were incubated at 37° C. for 3 days in a 5% carbon dioxide atmosphere. The reading was effected in comparison with these controls. The results were given as the percentage of the deficiency and degeneration compared to the growth control. […] The statements are referred to μg of substance per ml of total medium.

| SMILES | MIC [1] [µg/mL] | MIC [2] [µg/mL] | MIC [3] [µg/mL] | MIC [4] [µg/mL] | MIC [5] [µg/mL] | MIC [6] [µg/mL] | MIC [7] [µg/mL] | MIC [8] [µg/mL] | IC50 ([9]; read-out: ED50, HeLa cell culture) [µg/mL] | minimal effective concentration ([9]; read-out: Minimal inhibitory concentration, HeLa cell culture) [µg/mL] | Concentration with reduced growth (value in brackets), S.D.T., Candida albicans ([6]; reduced growth at this concentration) [µg/mL] |
| --- | --- | --- | --- | --- | --- | --- | --- | --- | --- | --- | --- |
| O=C(c1cc(Cl)c(O)cc1O)C(F)(F)F [U, 2,4-Dihydroxy-5-chloro-trifluoroacetophenone] | 10 (≈ 41.6 µM) | 250 (≈ 1040 µM) | 1000 (≈ 4160 µM) | 250 (≈ 1040 µM) | 5 (≈ 20.8 µM) | 20 (≈ 83.1 µM) | 20 (≈ 83.1 µM) | 1000 (≈ 4160 µM) |  |  |  |
| Cc1c(O)ccc(C(=O)C(F)(F)C(F)(F)F)c1O [V, 2,4-Dihydroxy-3-methyl-pentafluoropropiophenone] | 20 (≈ 74 µM) | 250 (≈ 925 µM) | 4000 (≈ 14800 µM) | > 4000 | 20 (≈ 74 µM) | 80 (≈ 296 µM) | > 80 | 4000 (≈ 14800 µM) | 1.5 (≈ 5.55 µM) | ≤ 0.78 |  |
| CCCCCCCCCCc1cc(C(=O)C(F)(F)F)c(O)cc1O [W, 2,4-Dihydroxy-5-n-decyl-trifluoroacetophenone] | 80 (≈ 231 µM) | ≤ 15.6 | 1000 (≈ 2890 µM) | 250 (≈ 722 µM) | 1.25 (≈ 3.61 µM) |  | 5 (≈ 14.4 µM) | 250 (≈ 722 µM) |  |  | 20 |
